In patent US8604202B2, “Thienopyridone derivatives as AMP-activated protein kinase (AMPK) activators” (Merck Patent GmbH, priority 2008, dated 2013):

Legend:
[1] = tested on: ob/ob and db/db mice; conditions: 8 day administration; cited from earlier work
[2] = target: T1, AMPK protein (recombinant α1β1γ2) (Homo sapiens, UniProt Q13131+Q9Y478); experiment: AMPK enzymatic activity (Delfia, AMARA peptide); type: biochemical; conditions: compound 30 μM vs AMP 30 μM; 125 μM ATP; 30 min room temperature; ratio 90% or higher = direct activator
T1 construct: made in house; host or cells: E. coli
Method: The following biological test allows the determination of the efficacy of such compounds of formula (I) onto AMPK protein (recombinant α1β1γ2).
Human recombinant AMPK enzyme was expressed in E. Coli and was reactivated in vitro by LKB1 prior to enzyme activity determination.
AMPK enzyme activities were assayed by using A Delfia technology. AMPK enzyme activities were carried out in microtiter plates (50 mM Hepes buffer, pH 7.4 with 125 μM ATP respectively) in the presence of a synthetic peptide substrate (AMARAASAAALARRR, the “AMARA” peptide) and activators in serial dilutions. Reactions were initiated by the addition of AMPK (50-100 ng). Following mixing, the plates were incubated for 30 min at room temperature. Enzyme activity was assayed by using an anti-phosphoserine antibody to measure the quantity of phosphate incorporated into the AMARAA.
Ratio between the % of control (basal activity) of compound of formula (I) at 30 μM and the % of control (basal activity) of AMP (natural substrate) at 30 μM. Compounds of formula (I) in the table II are considered as direct activator of AMPK if the ratio is 90% or higher.

[3] = tested on: H-2 Kb cells; experiment: Glucose uptake in H-2 Kb cells (in vitro cellular test); type: cell-based, mouse; conditions: Mus musculus; differentiated H-2 Kb muscle cells, 4 hours incubation, 2-deoxy-D-[3H]glucose 10 min; read-out: activity: Concentration of compound for a glucose uptake equal or higher to glucose uptake induced by insulin (170 nM)
Method: The following cellular test allows the determination of the effect of AMPK activators such as compounds of formula (I) onto glucose uptake in a muscle cellular model.
H-2 Kb cells derived from heterozygous H-2 Kb tsA58 transgenic mouse were grown in 24-well in plates coated with matrigel and were cultured at 33° C. for 4 days under permissive conditions, as described previously by Fryer et al. (Diabetes 49 (12): 1978, 2000).
For differentiation in muscle, cells were switched to non-permissive culture conditions (37° C. in the absence of interferon-γ). After 3 days, cells were incubated for 4 hours in DMEM 1 g/l glucose culture medium containing different concentrations of the tested molecules. Then glucose uptake was measured by incubating the cells for 10 min with radiolabelled 2-deoxy-D-[1, 2 ^3H] glucose. Glucose uptake was terminated by rapidly washing the plates 2 times with ice-cold NaCl 0.9%. The cells were then solubilized in 0.1N NaOH for 30 min. Radioactivity was determined by liquid scintillation counting.
Activity table III: Concentration of compound (1) for a glucose uptake equal or higher to glucose uptake induced by insulin (170 nM)

T1 sequence (Q13131 whole entry): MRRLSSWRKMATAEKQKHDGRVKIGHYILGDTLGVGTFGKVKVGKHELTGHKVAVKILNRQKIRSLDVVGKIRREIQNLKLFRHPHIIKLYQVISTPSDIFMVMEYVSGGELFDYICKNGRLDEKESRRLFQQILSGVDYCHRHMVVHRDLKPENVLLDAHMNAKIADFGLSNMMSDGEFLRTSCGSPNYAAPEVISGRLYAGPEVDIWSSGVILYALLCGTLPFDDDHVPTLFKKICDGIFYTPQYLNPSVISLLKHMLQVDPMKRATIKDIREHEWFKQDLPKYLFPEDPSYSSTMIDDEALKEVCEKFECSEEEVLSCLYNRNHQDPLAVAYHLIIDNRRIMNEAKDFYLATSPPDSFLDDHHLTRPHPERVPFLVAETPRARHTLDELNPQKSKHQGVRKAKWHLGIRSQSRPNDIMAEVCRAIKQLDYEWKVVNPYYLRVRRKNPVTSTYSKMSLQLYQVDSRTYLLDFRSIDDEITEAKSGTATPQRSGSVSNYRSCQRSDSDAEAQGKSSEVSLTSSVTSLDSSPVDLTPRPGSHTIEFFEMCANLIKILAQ
T1 sequence (Q9Y478 whole entry): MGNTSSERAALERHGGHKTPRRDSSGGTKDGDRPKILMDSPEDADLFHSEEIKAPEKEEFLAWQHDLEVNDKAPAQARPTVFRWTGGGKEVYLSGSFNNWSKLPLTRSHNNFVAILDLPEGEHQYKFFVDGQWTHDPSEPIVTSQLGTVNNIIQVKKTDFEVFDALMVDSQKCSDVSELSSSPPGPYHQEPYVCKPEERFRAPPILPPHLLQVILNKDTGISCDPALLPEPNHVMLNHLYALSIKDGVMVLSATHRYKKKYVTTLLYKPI
T1 sequence (Q9UGJ0 whole entry partner): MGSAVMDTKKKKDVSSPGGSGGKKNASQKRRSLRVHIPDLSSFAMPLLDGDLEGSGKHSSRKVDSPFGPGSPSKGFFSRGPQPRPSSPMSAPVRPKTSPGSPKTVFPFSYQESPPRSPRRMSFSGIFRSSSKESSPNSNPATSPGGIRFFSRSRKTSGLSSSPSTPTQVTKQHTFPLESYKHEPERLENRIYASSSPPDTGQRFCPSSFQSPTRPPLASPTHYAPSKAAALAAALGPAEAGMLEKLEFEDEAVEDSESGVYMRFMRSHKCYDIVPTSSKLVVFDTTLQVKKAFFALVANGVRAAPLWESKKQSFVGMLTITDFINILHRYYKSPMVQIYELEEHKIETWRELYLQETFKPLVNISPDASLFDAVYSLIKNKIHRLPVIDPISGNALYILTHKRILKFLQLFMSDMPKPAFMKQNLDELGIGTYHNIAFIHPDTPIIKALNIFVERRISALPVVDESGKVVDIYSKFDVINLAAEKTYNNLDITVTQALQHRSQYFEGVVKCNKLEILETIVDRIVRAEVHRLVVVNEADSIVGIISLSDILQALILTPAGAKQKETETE

activity: Ratio between the % of control (basal activity) of compound of formula (I) at 30 μM and the % of control (basal activity) of AMP at 30 μM [2] [%]	SMILES	reduces blood glucose [1] [%]	EC (glucose uptake equal or higher to insulin 170 nM) [3] [µM]
	NC(=O)c1ncn([C@@H]2O[C@H](CO)[C@@H](O)[C@H]2O)c1N [AICAR, 5-aminoimidazole-4-carboxamide riboside]	35	
156	Cc1cccc(-c2ccc(-c3csc4[nH]c(=O)c(-c5cccnc5)c(O)c34)cc2)c1 [Compound 36, 4-hydroxy-3-(3′-methylbiphenyl-4-yl)-5-pyridin-3-yl-6,7-dihydro-thieno[2,3-b]pyridin-6-one]		> 10
